Measurements as given in PubChem BioAssay (NCI).
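Cultured in 96-well plates, cells were exposed to test compound for 48 hours across five concentrations. The concentration for 50% growth inhibition is given as GI50. Definition used: TGI = concentration required for complete inhibition of growth.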 Where a SMILES comes first, the peptide text is derived from it. Bridges are numbered along the chain shown (N, C = ends). Roman numbers before positions name the chains, in order. [ ]: non-standard residue; d: D form. The star is where a group is joined. Heptadecanoyl = CCCCCCCCCCCCCCCCC(=O)*; Phg = N[CH](C(=O)O)c1ccccc1

Legend:
Test in all cases: DTP human tumour cell line panel, 48 h
[1] = system: A498 renal
[2] = system: CCRF-CEM leukemia
[3] = system: M14 melanoma
[4] = system: MDA-MB-231 breast
[5] = system: NCI-H460 lung
[6] = system: NCI-H522 lung
[7] = system: OVCAR-8 ovarian
[8] = system: SW-620 colon
[9] = system: LOX IMVI melanoma
[10] = system: MCF7 breast

| SMILES | TGI [1] [µM] | TGI [2] [µM] | TGI [3] [µM] | TGI [4] [µM] | TGI [5] [µM] | TGI [6] [µM] | TGI [7] [µM] | TGI [8] [µM] | TGI [9] [µM] | TGI [10] [µM] | GI50 [1] [µM] | GI50 [2] [µM] | GI50 [3] [µM] | GI50 [10] [µM] | GI50 [4] [µM] | GI50 [5] [µM] | GI50 [6] [µM] | GI50 [7] [µM] | GI50 [8] [µM] | GI50 [9] [µM] |
| --- | --- | --- | --- | --- | --- | --- | --- | --- | --- | --- | --- | --- | --- | --- | --- | --- | --- | --- | --- | --- |
| C/C(=C\c1ccc2c(c1)OCO2)[N+](=O)[O-] | 24.3 | > 100 | 42.5 | > 100 | > 100 | 3.21 | 5.79 | > 100 |  |  |  |  |  |  |  |  |  |  |  |  |
| C(=N/Nc1ccccn1)/c1cccnc1 | > 100 | > 100 | > 100 | > 100 | > 100 | > 100 | > 100 | > 100 | > 100 | > 100 |  |  |  |  |  |  |  |  |  |  |
| CCCCCCCCCCCCCCCCC(=O)N1CCCC1C(=O)NCC(=O)NC(C(=O)N1CCCC1C(=O)NC(CO)C(=O)NC(Cc1ccc(O)cc1)C(=O)NC(CCCCNC(=O)C1CCCN1C(=O)C(CCCCN)NC(=O)C(CCCCN)NC(=O)C(CCCCN)NC(=O)C(CCCNC(=N)N)NC(=O)C(CCCCN)NC(=O)C(N)C(C)C)C(=O)NC(CC(C)C)C(=O)NC(CCCNC(=N)N)C(=O)N1CCCC1C(=O)NCC(N)=O)c1ccccc1 (centres undefined) (I: Heptadecanoyl-PG[Phg]PSYKLRPG-NH2 / II: H-VKRKKKP; amide I:7-II:C; configuration not given here) | > 100 | 31.5 | 99.7 | 36.1 | > 100 | 85.9 | 84.6 | > 100 |  | > 100 | 76.3 | 12 | 25.3 | 23.6 | 17.7 | 23.2 | 25.5 | 28.2 | 40.5 |  |
| CN(C)C(=S)SCc1ccccc1 | > 100 | > 100 | > 100 | > 100 | > 100 | > 100 | > 100 | > 100 | > 100 | > 100 |  |  |  |  |  |  |  |  |  |  |
| CCOC(=O)c1cc(Cl)ccc1OC(N)=O | > 100 | > 100 |  |  | > 100 |  | > 100 | > 100 | > 100 | > 100 |  |  |  |  |  |  |  |  |  |  |
| N#CC(C#N)=Cc1ccc(-c2ccc(-c3nc4ccccc4s3)cc2)s1 | 41.1 | 62.9 | 96.2 | 36.9 | > 100 | 54 | 72.2 | > 100 | 23.5 | > 100 | 18.7 | 21 | 29.3 | 26.2 | 16.1 | 26 | 19.4 | 23.1 | 19.8 | 8.5 |
| Nc1nc(Cl)nc2c1ncn2C1CCC(CO)O1 (centres undefined) | > 100 | > 100 | > 100 |  | > 100 |  | > 100 | > 100 | > 100 | > 100 |  |  |  |  |  |  |  |  |  |  |
| Cc1cccc(C(O)c2ccccn2)c1O (centres undefined) |  | > 100 |  | > 100 | > 100 | > 100 | > 100 | > 100 | > 100 | > 100 |  |  |  |  |  |  |  |  |  |  |
